Results from patent US5506204A, “Muramyl compounds for treatment of septic shock” (Peptech (UK) Limited, priority 1991, dated 1996).
Where two headings read alike, the source gives them in different places.

Columns and labels:
[1] = test system: patients undergoing surgery for colon cancer
Protocol: All the patients entering this trial were about to undergo major abdominal surgery for the resection of carcinoma of the colon.
(§1) In the treated group GMDP was given per os on days -2 and -1 before the operation, and subcutaneously on days +1, +2 and +3 after the operation at a dose of 1-2 mg/day. The total dose of GMDP was […]. On day +5 after the operation neutrophil function was again assessed in all patients by the same parameters as specified above.
The patients were monitored for post-operative sepsis for four weeks following the operation. The septic complications which were scored included disseminated sepsis, pneumonia, peritonitis and abdominal abscesses, all of which are known to lead to septic shock.

Pyrogenicity = details: in vivo
Protocol: The expression "non pyrogenic or of low pyrogenicity" refers to a compound which induces an increase in temperature of an adult human of less than half a degree following the administration of 1 to 2 mg of the compound.
First, muramyl peptide compounds useful in the invention may be non-pyrogenic. Pyrogenicity may be simply measured by methods well known in the art.

IL-1 = assay: Example 6: IL-1 production by peritoneal macrophages in response to LPS; type: in vivo, BALB/c mice; details: 2 injections 12 hours apart; macrophages stimulated with LPS 25 μg/ml 24 hours; thymocyte co-stimulation bioassay; FIG. 4
Protocol: Mice (BALB/c, female) 13-14 g, 5 animals in each group, received 2 injections of MDPs, 12 hours apart. The MDPs tested were MDP, muroctasin, MDP-Thr, MDP-OBu, GMDP-LL, GMDP-Lys(St) and GMDP-A. After the last injection, peritoneal cells were collected and the induction of IL-1 secretion by peritoneal macrophages was tested.
Macrophages were collected from the peritoneal cavity of mice by lavage with Hank's balanced salt solution. After washing the cells, they were then placed in wells of flat-bottomed 96-well plates and incubated at 37° C. for 1 hour in RPMI containing 5% FCS. The plates were then washed with warm RPMI to remove non-adhering cells. LPS (25 μg/ml) was then added in fresh culture medium and the plates were further cultured for 24 hours.
Production of IL-1 by peritoneal macrophages was assayed by thymocyte co-stimulation bioassay. Thymocytes from (CBA*C57BL.6)F1 mice (106), PHA (1 μg.ml), and the tested supernatant (50 μl) were placed into the wells of flat-bottomed 96-well plates. Thymocyte proliferation rate was measured 72 hours later by the incorporation of 3H TdR (1 μCi.well) during 6 hours prior to culture termination.

neutrophils [2] = test system: neutrophils
Protocol: (§2) Neutrophils were isolated from peripheral blood. 3.5 ml of heparinised blood was spread over M-PRM medium (Flow Laboratories) and centrifuged for 40 minutes at 400g at 20° C. […] The cells were adjusted to a concentration of 2×10^6 ml.
Myeloperoxidase: 100 μl of substrate mixture, consisting of 0.04% orthophenylene diamine (Sigma) and 0.014% hydrogen peroxide in phosphate citrate buffer (pH 5.0) was added to cells and incubated for 10 minutes before the reaction was stopped with 100 μl of 10% sulphuric acid. The optical density at 492 mu was measured with a Multiscan Titertek Plus (Flow Laboratories).
(§3) For chemiluminescence, superoxide anion production, myeloperoxidase and acid phosphatase both the spontaneous and induced reactions were measured. Induction was performed by exposing the cells to opsonized zymosan (30 μl, 20 mg/ml) for 30 minutes at 37° C. before the assay.
(§4) On day before treatment with GMDP (day -1) the neutrophil function of all patients was measured by the tests described above in Example 1. In the GMDP-treated group, GMDP was administered parenterally at a dose of 1-2 mg/day for five consecutive days. The total dose of GMDP was […].
(§5) One day after the cessation of GMDP treatment (day +6), neutrophil function was again measured in all patients.

neutrophils [3] = test system: neutrophils; remark: listed apart in the source
Protocol: as §2
(§6) Acid phosphatase: 50 μl of substrate mixture, consisting of 0.24% paranitrophenyl phosphate (Boehring) and 0.84% NaCl in a sodium citrate buffer (pH 5.5) were added to cells and incubated for 30 minutes at 30° C. before the reaction was by adding 100 μl of 0.2M NaOH. The optical density at 405 mu was measured with a Multiscan Titertek Plus (Flow Laboratories).
as §3, §1

TNFα = assay: Example 8: TNF induction by muramyl peptides; type: in vivo, BALB/c mice; details: C. parvum-primed mice, 100 μg (equimolar) IP, LPS 25 μg 18 hours later; FIG. 6
Protocol: Here, the muramyl peptides tested were prototype MDP, GMDP, GMDP-A, GMDP-OBu, GMDP-Lys(St), GMDPA-Lys(St), GMDP-Benz and Thr-MDP.
BALB/mice (6 mice/groups) were injected intraperitoneally with 1.4 mg of dead C. parvum (0.2 ml of a 7 mg/ml suspension). Mice were subsequently (2 weeks later) treated with saline, MDP (100 μg) or analogue (100 μg) in 0.5 ml saline IP. The dose of each `MDP` was adjusted so that animals received equimolar amounts. […] (25 μg) was injected 18 hours after the injection of MDP/analogue and the mice were subsequently sacrificed and bled out. TNF was determined by standard capture ELISA assay.

neutrophils [4] = test system: neutrophils; remark: listed apart in the source
Protocol: as §2
Superoxide anion production was determined by the NBT test (Merck).
as §3, §4, §5

neutrophils [5] = test system: neutrophils; remark: listed apart in the source
Protocol: as §2, §6, §3, §4, §5

neutrophils [6] = test system: neutrophils; remark: listed apart in the source
Protocol: as §2
Chemiluminescence: Luminol-dependent chemiluminescence was measured on a 1251 Luminometer (LKB).
as §3, §4, §5

[7] = opsonized zymosan, Day -1 (before treatment)
[8] = opsonized zymosan, Day -1 to Day +6

Question: For `CC(=O)NC1C(OC2C(CO)OC(O)C(NC(C)=O)C2OC(C)C(=O)NC(C)C(=O)NC(CCC(=O)O)C(N)=O)OC(CO)C(O)C1O` [GMDP, N-acetyl-D-glucosaminyl-(β1-4)-N-acetylmuramyl-L-alanyl-D-isoglutamine], which “No of Patients with Septic Complications” value ([1]; 16 treated patients, GMDP 1-2 mg/day per os days -2,-1, s.c. days +1 to +3, monitored 4 weeks) is on record?
Answer: 3

Question: What about the “Mortality (%)” value ([1]; GMDP before and after operation, control 15%) of the same molecule?
Answer: 6.25%

Question: And the “Incidence of Septic Complications (%)” value ([1]; GMDP before and after operation, control 50%)?
Answer: 18.75%

Question: And the pyrogenicity (Pyrogenicity)?
Answer: sufficiently low

Question: And the “suppression of IL-1 production” value (IL-1)?
Answer: suppress the IL-1 response to LPS

Question: And the “Myeloperoxidase, spontaneous” value (neutrophils [2]; Day +6)?
Answer: 595.2 ± 48.3 O.D. 492μ

Question: And the “Myeloperoxidase, spontaneous” value (neutrophils [2]; Day -1 (before treatment))?
Answer: 504.5 ± 118 O.D. 492μ

Question: And the “Myeloperoxidase, spontaneous % Change” value (neutrophils [2]; Day -1 to Day +6)?
Answer: +17.9%

Question: What about the “Myeloperoxidase, induced” value (neutrophils [2]; opsonized zymosan, Day +6) of the same molecule?
Answer: 587.1 ± 96.3 O.D. 492μ

Question: What about the “Myeloperoxidase, induced” value (neutrophils [2]; [7]) of the same molecule?
Answer: 520.3 ± 60.1 O.D. 492μ

Question: What about the “Myeloperoxidase, induced % Change” value (neutrophils [2]; [8]) of the same molecule?
Answer: +12.8%

Question: And the “Acid phosphatase, spontaneous” value (neutrophils [3]; Day +5)?
Answer: 114.9 ± 2.4 O.D. 405μ

Question: What about the “Acid phosphatase, spontaneous” value (neutrophils [3]; Day -3 (before treatment)) of the same molecule?
Answer: 133.8 ± 75 O.D. 405μ

Question: What about the “Acid phosphatase, spontaneous % Change” value (neutrophils [3]; Day -3 to Day +5) of the same molecule?
Answer: -14.1%

Question: And the “Acid phosphatase, induced” value (neutrophils [3]; opsonized zymosan, Day +5)?
Answer: 120.8 ± 3.2 O.D. 405μ

Question: And the “Acid phosphatase, induced” value (neutrophils [3]; opsonized zymosan, Day -3 (before treatment))?
Answer: 172.3 ± 18.8 O.D. 405μ

Question: What about the “Acid phosphatase, induced % Change” value (neutrophils [3]; opsonized zymosan, Day -3 to Day +5) of the same molecule?
Answer: -29.94%

Question: What about the “effect on LPS-induced TNFα production” value (TNFα) of the same molecule?
Answer: suppress TNFα production

Question: And the “Superoxide, spontaneous” value (neutrophils [4]; Day +6)?
Answer: 84.3 ± 8.7 O.D. 540μ

Question: And the “Superoxide, spontaneous” value (neutrophils [4]; Day -1 (before treatment))?
Answer: 55.5 ± 6.4 O.D. 540μ

Question: What about the “Superoxide, spontaneous % Change” value (neutrophils [4]; Day -1 to Day +6) of the same molecule?
Answer: +51.9%

Question: What about the “Superoxide, induced” value (neutrophils [4]; [7]) of the same molecule?
Answer: 92.1 ± 3.21 O.D. 540μ

Question: What about the “Superoxide, induced % Change” value (neutrophils [4]; [8]) of the same molecule?
Answer: +53.2%

Question: And the “Acid phosphatase, spontaneous” value (neutrophils [5]; Day +6)?
Answer: 251.3 ± 16.1 O.D. 405μ

Question: And the “Acid phosphatase, spontaneous” value (neutrophils [5]; Day -1 (before treatment))?
Answer: 119.4 ± 10.1 O.D. 405μ

Question: What about the “Acid phosphatase, spontaneous % Change” value (neutrophils [5]; Day -1 to Day +6) of the same molecule?
Answer: +110.5%

Question: What about the “Acid phosphatase, induced” value (neutrophils [5]; opsonized zymosan, Day +6) of the same molecule?
Answer: 201 ± 14.3 O.D. 405μ

Question: What about the “Acid phosphatase, induced” value (neutrophils [5]; [7]) of the same molecule?
Answer: 104.4 ± 3.6 O.D. 405μ

Question: What about the “Acid phosphatase, induced % Change” value (neutrophils [5]; [8]) of the same molecule?
Answer: +92.5%

Question: And the “Chemiluminescent, spontaneous” value (neutrophils [6]; Day +6)?
Answer: 4.16 ± 0.14 mV

Question: And the “Chemiluminescent, spontaneous” value (neutrophils [6]; Day -1 (before treatment))?
Answer: 2.41 ± 0.14 mV

Question: And the “Chemiluminescent, spontaneous % Change” value (neutrophils [6]; Day -1 to Day +6)?
Answer: +72.6%

Question: And the “Chemiluminescent, induced” value (neutrophils [6]; opsonized zymosan, Day +6)?
Answer: 21.3 ± 3.51 mV

Question: What about the “Chemiluminescent, induced” value (neutrophils [6]; [7]) of the same molecule?
Answer: 9.41 ± 2.1 mV

Question: And the “Chemiluminescent, induced % Change” value (neutrophils [6]; [8])?
Answer: +126.4%
